Our source for the IC50 and inhibition values is patent publication US5760036A, “Aminediol protease inhibitors” (E. R. Squibb & Sons, Inc., priority 1995, dated 1998).

Where a name gives a salt, the structure may show the parent alone. Read-outs that look alike come from different tables or passages of the source.

Experiment [1] concerns RF strain of HIV (CEM-SS cells). The experiment in a line: Cell Culture Anti-HIV Activity (cell viability, formazan). It counts as cell-based. The settings on record: Human immunodeficiency virus 1, CEM-SS, 144 h, CEM-SS cells, RF strain of HIV, multiplicity of infection 0.04, 6 days at 37° C., 450 nm; read-out: HIV (CEM Cells) IC50. Summed up: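 Half-log compound dilutions added to CEM-SS cells (5000/well) carrying HIV RF (MOI 0.04), 6 days, 37° C. Cell protection measured as formazan from tetrazolium, A450. IC50: drug level restoring infected-cell formazan to 50% of the uninfected untreated control.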

For experiment [2], the target named is T1, HIV protease (Human immunodeficiency virus type 1 group M subtype B, UniProt P04585).
T1 construct: and purified protease
Nature of the experiment: HIV Protease Assay. The class given is biochemical. Summed up: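 At a single final concentration of 10 μM (4% DMSO), inhibitors were added to a 30-minute, 37° C reaction of purified enzyme with 450 μM H2N-Val-Ser-Gln-Asn-(β-naphthyl-alanine)-Pro-Val-Ile-OH at pH 5.5 (sodium acetate, BSA). Hydrolysis was quantified by reverse-phase HPLC with 220 nm detection after acid quench.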

The mark [3] stands for this setting: pH 5.5, 10 μM inhibitor, 4% DMSO, 450 μM substrate, pH 5.5, 30 minutes at 37° C., RP-HPLC, read-out: HIV Protease % Inhibition at 10 μM.
The mark [4] stands for this setting: pH 5.5, read-out: HIV Protease % Inhibition at 10 μM.

Take `CC(C)(C)OC(=O)N[C@@H](Cc1ccccc1)[C@H](O)CNC[C@@H](O)[C@H](Cc1ccccc1)NC(=O)OC(C)(C)CF` [Compound 252, [1S-(1R*,2S*)]-[Iminobis[2-hydroxy-1-(phenylmethyl)-3,1-propanediyl]]biscarbamic acid 2-fluoro-1,1-dimethylethyl 1,1-dimethylethyl ester]: the IC50 in experiment [1] was 60 nM. For the same compound, the inhibition at 10 µM in experiment [2] (setting [3]) came out at 99%.
For `CC(C)(C)OC(=O)N[C@@H](Cc1ccccc1)[C@H](O)CNC[C@@H](O)[C@H](Cc1ccccc1)NC(=O)OC(C)(C)CCCNC(=O)OCc1ccccc1` [Compound 150, [1S-(1R*,2S*)]-[Iminobis[2-hydroxy-1-(phenylmethyl)-3,1-propanediyl)]biscarbamic acid, 1,1-dimethylethyl 1,1-dimethyl-4-[[(phenylmethoxy)carbonyl]amino]butyl ester], in that order: greater than 4000 nM and 93%.
Take `CC(C)(C)OC(=O)N[C@@H](Cc1ccccc1)[C@H](O)CNC[C@@H](O)[C@H](Cc1ccccc1)NC(=O)OC1CCOC1` (stereo partly drawn) [Compound 310, [1S-(1R*,2S*)]l-[Iminobis[2-hydroxy-1-(phenylmethyl)3,1-propanediyl]]bis[carbamic acid], 3-tetrahydrofuranyl 1,1-dimethylethyl ester]: the IC50 in experiment [1] stood at 180 nM. Also, in experiment [2] (setting [3]), the inhibition at 10 µM turned out to be 100%.
The matching figures for `CC(C)[C@H](NC(=O)CO)C(=O)N[C@@H](Cc1ccccc1)[C@H](O)CNC[C@@H](O)[C@H](Cc1ccccc1)NC(=O)OC(C)(C)C` (relative stereo) [Compound 259, [1R*, 2S* (2S*, 3R*)]-N-[3-[[3-[[(1,1-Dimethylethoxy)carbonyl]amino]-2-hydroxy-4-phenylbutyl]amino]-2-hydroxy-1-(phenylmetyl)propyl]-N^2-(hydroxyacetyl)-L-valinamide]: 5000 nM and 99%.
Turning to `CC(C)(C)OC(=O)N[C@@H](CCc1ccccc1)[C@H](O)CNC[C@@H](O)[C@H](Cc1ccccc1)NC(=O)OC(C)(C)C` [Compound 25, [1S-[1R*,2S*(2S*,3R* )]]-[3-[[3-[[(1,1-Dimethylethoxy)carbonyl]amino]-2-hydroxy-4-phenylbutyl]amino]-2-hydroxy-1-(2-phenylethyl))propyl]carbarmic acid, 1,1-dimethylethyl ester], the IC50 in experiment [1] was determined as 530 nM. The inhibition at 10 µM in experiment [2] (setting [4]) amounted to 98%.
In the case of `CC(C)(C)OC(=O)N[C@@H](Cc1ccccc1)[C@H](O)CNC[C@@H](O)[C@H](Cc1ccccc1)NC(=O)OC1CCc2ccccc21` (stereo partly drawn) [Compound 144, [1S-(1R*,2S*)]-[Iminobis[2-hydroxy-1-(phenylmethyl)-3,1-propanediyl)]-bis[carbamic acid], 1,1-dimethylethyl-2,3-dihydro-1H-inden-1-yl ester], the IC50 in experiment [1] is 1000 nM. Moreover, the inhibition at 10 µM in experiment [2] (setting [3]) came to 88%.
As for `CC(C)(C)OC(=O)N[C@@H](CC1CCCCC1)[C@H](O)CNC[C@@H](O)[C@H](CC1CCCCC1)NC(=O)OC(C)(C)C` [Compound 14, [R-(R*,S*)]-[Iminobis[1-(cyclohexylmethyl)-2-hydroxy-3,1-propanediyl]]-biscarbamic acid, bis(1,1-dimethylethyl) ester], in experiment [1], the IC50 came out at 1100 nM. Also, the inhibition at 10 µM in experiment [2] (setting [4]) was 100%.
As to `CC(C)[C@H](NC(=O)OCCNc1ccccc1)C(=O)N[C@@H](Cc1ccccc1)[C@H](O)CNC[C@@H](O)[C@H](Cc1ccccc1)NC(=O)OC(C)(C)C` (relative stereo) [Compound 203, [1R*,2S*(2S*,3R*)]-N-[3-[[3-[[(1,1-Dimethylethoxy)carbonyl]amino]-2-hydroxy-4-phenylbutyl]amino]-2-hydroxy-1-(phenylmethyl)propyl]-N^2-[[2-(phenylamino)ethoxy]carbonyl]-L-valinamide], the IC50 in experiment [1] turned out to be 200 nM. Further, the inhibition at 10 µM in experiment [2] (setting [3]) stood at 98%.
Turning to `CC(C)(C)OC(=O)N[C@@H](Cc1ccccc1)[C@H](O)CNC[C@@H](O)[C@H](Cc1ccccc1)NC(=O)[C@@H](NC(=O)OCc1cc2ncccc2o1)C(C)(C)C` [Compound 323, [S-[1R*,2S*(2S*,3R*)]]-[r2,2-Dimethyl-1-[[[3-[[3-[[(1.1-dimethylethoxy)carbonyl]amino]-2-hydroxy-4-phenylbutyl]amino]-2-hydroxy-1-(phenylmethyl)propyl]amino]carbonyl]propyl]carbamic acid, (2-furo[3,2-b]pyridinyl)methyl ester], in experiment [1], the IC50 turned out to be 14 nM. The inhibition at 10 µM in experiment [2] (setting [3]) turned out to be 100%.
The matching figures for `CC(C)[C@H](NC(=O)OCc1ccccc1)C(=O)N[C@@H](Cc1ccccc1)[C@H](O)CNC[C@@H](O)[C@H](Cc1ccccc1)NC(=O)[C@H](CC(N)=O)NC(=O)OCc1ccccc1` [Compound 112, [S-[1R*,2S*(2S*,3R*)]]-N-[2-Hydroxy-3-[[2-hydroxy-4-phenyl-3-[[N-[(phenyl-methoxy)carbonyl]-L-valyl]amino]butyl]amino]-1-(phenylmethyl)propyl]-N^2-[(phenylmethoxy)-carbonyl]-L-asparaginamide, monohydrochloride]: greater than 8600 nM and 100%.
For `CC(C)(C)OC(=O)N[C@@H](Cc1ccccc1)[C@H](O)CNC[C@@H](O)[C@H](Cc1ccccc1)NC(=O)[C@@H](NC(=O)OCc1nc2ccccc2s1)C(C)(C)C` [Compound 292, [S-[1R*,2S*(2S*,3R*)]]-[2,2-Dimethyl-1-[[[3-[[3-[[(1,1-dimethylethoxy)carbonyl]amino]-2-hydroxy-4-phenylbutyl]amino]-2-hydroxy-1-(phenylmethyl)propyl]amino]carbonyl]propyl]carbamic acid, (2-benzothiazolyl)methyl ester], in that order: 170 nM and 99%.
The matching figures for `CC(C)(C)OC(=O)N[C@@H](Cc1ccccc1)[C@H](O)CNC[C@@H](O)[C@H](Cc1ccccc1)NC(=O)C(C)(O)C(F)(F)F` (single isomer, unassigned; isomer a) [Compound 293, [1S-[1R*,2S*(2S*,3R*)]]-[2-Hydroxy-3-[2-hydroxy-1-oxo-2-(trifluoromethyl)-propyl]amino]-4-phenylbutyl]amino]-1-(phenylmethyl)propyl]carbamic acid, 1,1-dimethylethylester (isomer A)]: 30 nM and 99%.
For `CC(C)[C@H](NC(=O)OC[C@@H](O)CO)C(=O)N[C@@H](Cc1ccccc1)[C@H](O)CNC[C@@H](O)[C@H](Cc1ccccc1)NC(=O)OC(C)(C)C` (relative stereo) [Compound 202, [[1R*,2S*(2S*,3R*)],N^2-(R*)]-N^2-[(2,3-Dihydroxypropoxy)carbonyl]-N-[3-[[3-[[(1,1-dimethylethoxy)carbonyl]amino]-2-hydroxy-4-phenylbutyl]amino]-2-hydroxy-1-(phenylmethyl)propyl]-L-valinamide], in experiment [1], the IC50 worked out at 16000 nM. In experiment [2] (setting [3]), the inhibition at 10 µM was 95%.
The matching figures for `CC(C)(C)OC(=O)N[C@@H](Cc1ccccc1)[C@H](O)CNC[C@@H](O)[C@H](Cc1ccc2ncccc2c1)NC(=O)OC(C)(C)C` [Compound 31, [1S-[1R*,2S*(2S*,3R*)]]-[3-[[3-[[(1,1-Dimethylethoxy)-carbonyl]amino]-2-hydroxy-4-phenylbutyl]amino-2-hydroxy-1-(6-quinolinylmethyl)propyl]carbamic acid, 1,1-dimethylethyl ester]: 30 nM and 100%.
The matching figures for `CC(C)[C@H](NC(=O)N(C)Cc1ccccn1)C(=O)N[C@@H](Cc1ccccc1)[C@H](O)CNC[C@@H](O)[C@H](Cc1ccccc1)NC(=O)[C@@H](NC(=O)N(C)Cc1ccccn1)C(C)C` [Compound 75, [S-(1R*,2S*)]-N,N'-[Iminobisr[2-hydroxy-1-(phenylmethyl)-3,1-propanediyl]bisr[N^2-[[methyl(2-pyridinylmethyl)amino]carbonyl]-L-valinamide]: 5000 nM and 100%.
The matching figures for `C[C@@H](O)C(C)(C)OC(=O)N[C@@H](Cc1ccccc1)[C@H](O)CNC[C@@H](O)[C@H](Cc1ccccc1)NC(=O)OC(C)(C)C` [Compound 275, [1S-[1R*,2S*),(S*)]-[Iminobis [2-hydroxy-1-(phenylmethyl)-3,1-propanediyl]]biscarbamic acid, 1,1-dimethylethyl 2-hydroxy-1,1-dimethylpropyl ester]: 450 nM and 95%.
Turning to `CC(C)[C@H](NC(=O)C(N)Cc1ccccc1O)C(=O)N[C@@H](Cc1ccccc1)[C@H](O)CNC[C@@H](O)[C@H](Cc1ccccc1)NC(=O)OC(C)(C)C` (relative stereo) [Compound 211, [1R*,2S*(2S*,3R*)]-N-[3-[[3-[[(1,1-Dimethylethoxy)carbonyl]amino]-2-hydroxy-4-phenylbutyl]amino]-2-hydroxy-1-(phenylmethyl)propyl]-N^2-(2-hydroxyoxyphenylalanyl)-L-valinamide, fumarate (2:3) salt], the IC50 in experiment [1] amounted to 900 nM. For the same compound, the inhibition at 10 µM in experiment [2] (setting [3]) stood at 99%.
For `COC(C(=O)N[C@@H](Cc1ccccc1)[C@H](O)CNC[C@@H](O)[C@H](Cc1ccccc1)NC(=O)OC(C)(C)C)C(C)(C)C` (stereo partly drawn) [Compound 325, [1S-[1R*,2S*(2S*,3R*)]]-[2-Hydroxy-3-[[2-hydroxy-3-[(2-methoxy-3,3-dimethyl-1-oxobutyl)amino]-4-phenylbutyl]amino]-1-(phenylmethyl)-propyl]carbamic acid, 1,1-dimethylethyl ester], in that order: 1540 nM and 90%.

In general, IC50 refers to the concentration that gives 50% inhibition. Usually inhibition stands for the percentage by which the read-out fell short of the control.
